According to patent US20040076974A1, “Liver necrosis predictive genes” (priority 2002, published 2004):
“And” between values parts separate entries of the source, which are not always exact repeats. Identical values can stand only once. Like-named read-outs stand apart in the source and are kept apart here.

Assays:
Sprague Dawley rats = conditions: rat, in vivo; for Liver Necrosis / Score (histopathology liver necrosis severity score): ip
Outline: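 Toxicity calls (necrosis present or absent at 72 h) and histopathology scores were correlated with tissue gene expression from Crl:CD Sprague Dawley rats. Animals, usually 3 treated with compound by i.p. route and 3 given vehicle, were killed at 6, 24 or 72 h and tissues frozen immediately in liquid nitrogen.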

[1] = system: toxicologically relevant rat genes (rat CT array); conditions: rat, in vivo

O=P1(N(CCCl)CCCl)NCCCO1 (stereo not shown) [cyclophosphamide]
Liver Toxicity Necrosis Classification (Sprague Dawley rats): no
Liver Necrosis (Sprague Dawley rats; 25 mg/kg): no
Score (histopathology liver necrosis severity score) (Sprague Dawley rats; 25 mg/kg): 1
Liver Necrosis (Sprague Dawley rats; 100 mg/kg): no
Score (histopathology liver necrosis severity score) (Sprague Dawley rats; 100 mg/kg): 1
3-hydroxyisobutyrate dehydrogenase expression [1]: 0.9805 and 0.7489 and 0.9559 and 1.069
14-3-3 zeta expression [1]: 1.184 and 1.14 and 0.9397 and 1.393 and 1.097 and 1.241 and 0.8233 and 0.7916
60S ribosomal protein L6 expression [1]: 0.9039 and 0.9014 and 0.8838 and 1.028 and 0.8728 and 0.8315
ATPase inhibitor (rat mitochondrial IF1 protein) expression [1]: 0.7509 and 0.9233 and 0.8847 and 0.6961 and 0.9379 and 0.8829 and 0.8577 and 0.9897
Adenine nucleotide translocator 1 expression [1]: 0.9086 and 0.7561 and 1.167
Aflatoxin B1 aldehyde reductase expression [1]: 0.6743 and 0.8573 and 0.9459 and 0.6588 and 0.7015
Alpha-1 microglobulin/bikunin precursor (Ambp) expression [1]: 1.017 and 0.5993 and 0.8086
Alpha-2-macroglobulin expression [1]: 0.846 and 0.9185 and 0.7109 and 1.376 and 0.7513
Alpha-2-macroglobulin, sequence 2 expression [1]: 0.9485 and 1.095 and 1.193
Alpha-prothymosin expression [1]: 0.6454 and 0.6204
Alpha-tubulin expression [1]: 1.198 and 0.7656 and 0.8189
Annexin V expression [1]: 1.206 and 1.05 and 1.01
Apolipoprotein All expression [1]: 0.9781 and 0.8882 and 0.8841
Apolipoprotein C1 expression [1]: 0.9407 and 0.9263 and 1.074
Apolipoprotein CIII expression [1]: 0.9783 and 0.6934 and 0.9372
Aquaporin-3 (AQP3) expression [1]: 0.9643 and 0.9481 and 0.9808
Arginosuccinate synthetase 1 expression [1]: 1.222 and 0.8241 and 1.258
Bax (alpha) expression [1]: 1.239 and 1.237 and 1.357 and 1.269 and 0.9338
Beta-actin, sequence 2 expression [1]: 1.01 and 0.7994 and 0.7978
Beta-tubulin, class I expression [1]: 0.6539 and 0.688
Betaine homocysteine methyltransferase (BHMT) expression [1]: 0.479 and 0.46 and 0.7332
Biliverdin reductase expression [1]: 0.8817 and 0.9203 and 1
C-reactive protein expression [1]: 1.634 and 0.981 and 1.457
CDK108 expression [1]: 0.8582 and 0.7188 and 0.8687
Calpactin I heavy chain expression [1]: 1.229 and 1.24 and 1.238 and 1.077 and 1.066 and 1.019 and 0.9156
Calpain 2 expression [1]: 0.949 and 0.9377 and 0.9321
Cathepsin B expression [1]: 0.8937 and 0.8218 and 0.8443
Cathepsin S expression [1]: 1.022 and 1.151
Cofilin expression [1]: 1.007 and 0.8938 and 0.9356
Collagen type II expression [1]: 0.9485 and 0.8839 and 0.6238
Contrapsin-like protease inhibitor (CPi-21) expression [1]: 1.085 and 0.6397 and 0.8351
Cyclin D1 expression [1]: 0.8933 and 1.39
Cystatin C expression [1]: 0.9711 and 1.107 and 0.9417
Dynamin-1 (D100) expression [1]: 0.9779 and 1.159 and 1.053 and 0.8876 and 0.9989 and 0.9805 and 0.8392 and 0.9019
Elongation factor-1 alpha expression [1]: 1.136 and 0.9264
Epidermal growth factor expression [1]: 1.068 and 1.046 (2×) and 0.855 and 1.03
F1-ATPase beta subunit expression [1]: 0.9746 and 0.7787 and 0.8888
Fas antigen expression [1]: 1.289 and 1.407 and 0.9112 and 1.614 and 1.141
Fatty acid synthase expression [1]: 0.8145 and 0.6404 and 0.4288
Gadd45 expression [1]: 0.951 and 0.9302 and 1.226 and 0.8099 and 0.9252
Gadd153 expression [1]: 1.107 and 1.088 and 1.217 and 1.23 and 1.048
Glutathione S-transferase theta-1 expression [1]: 1.063 and 0.5752 and 0.7421
Heme oxygenase expression [1]: 0.9535 and 0.8807 and 1.153 and 0.8353 and 0.9394 and 1.116 and 1.353 and 1.508
High affinity IgE receptor gamma chain (FcERIgamma) expression [1]: 0.8735 and 0.8896 and 0.9764
Hypoxanthine-guanine phosphoribosyltransferase expression [1]: 0.9194 and 0.7728 and 0.8641
ID-1 expression [1]: 1.442 and 1.187 and 1.516 and 0.9754 and 1.354
IgE binding protein expression [1]: 0.8797
Integrin beta1 expression [1]: 1.174 and 0.9675 and 1.666 and 0.9992
Interleukin-18 expression [1]: 0.9442 and 1.131
JNK1 stress activated protein kinase expression [1]: 1.083 and 1.357
L-gulono-gamma-lactone oxidase expression [1]: 0.9031 and 1.152 and 0.724 and 0.7478 and 0.9085
Lecithin: cholesterol acyltransferase expression [1]: 1.164 and 0.8942 and 0.9655
Matrin F/G expression [1]: 1.192 and 0.8718 and 1.349 and 1.163
Melanoma-associated antigen ME491 expression [1]: 0.8571 and 0.8832 and 0.9165
Monocyte chemotactic protein receptor (CCR2) expression [1]: 0.9135 and 0.9294 and 1.707 and 0.9161 and 1.021
Multidrug resistant protein-1 expression [1]: 1.07 and 0.9469 and 1.398
Multidrug resistant protein-2 expression [1]: 1.024 and 1.129 and 1.355
NADP-dependent isocitrate dehydrogenase, cytosolic expression [1]: 0.8988 and 1.062
NIPK expression [1]: 1.292 and 0.8721
Nucleoside diphosphate kinase beta isoform expression [1]: 0.9788 and 0.8819 and 0.9694
Organic anion transporter 3 expression [1]: 1.199 and 1.24 and 0.8444 and 0.9666
Organic cation transporter 3 expression [1]: 0.9369 and 0.9031 and 0.9971 and 1.049 and 1.006 and 0.9297 and 0.8878
Ornithine decarboxylase expression [1]: 1.176 and 1.138 and 1.239 and 1.627 and 1.232 and 1.15 and 0.9487 and 1.103
Osteoactivin expression [1]: 1.044 and 1.068 and 1.102
PAR interacting protein expression [1]: 0.9853 and 0.8819 and 1.001 and 0.9074 and 0.8501
Phase-1 RCT-15 expression [1]: 1.548
Phase-1 RCT-24 expression [1]: 0.8922
Phase-1 RCT-33 expression [1]: 0.9894 and 0.9036 and 0.7825 and 0.5992
